Assays:
Assay in all cases: Broth dilution growth inhibition (OD600)
Assay type in all cases: cell-based
[1] = test system: Burkholderia cepacia ATCC25416; conditions: TSB, mean ± SD, triplicate; for Inhibitory percentage, Burkholderia cepacia: 100 µg/mL
Procedure: (§1) Three human pathogenic bacteria were selected for investigation, namely Bacillus subtilis ATCC6633, Pseudomonas aeruginosa ATCC28753, and Burkholderia cepacia ATCC25416.
(§2) In evaluating antibacterial activity by the broth dilution assay, human pathogenic bacteria were first prepared in tryptic soy agar (TSA) (Difco BBL, Sparks, MD, USA) for 24 h at 28 °C. Then, a single colony was cultured in tryptic soy broth (TSB) (Difco BBL, Sparks, MD, USA) for 12–16 h to reach an inoculum of 0.05 at OD600. The antibacterial activity of lower than 3 kDa protein hydrolysates/peptides was then determined against the pathogens in triplicate using 96-well microplates, with bacteria in TSB, phosphate-buffered saline (PBS), and antibiotic treatment (ampicillin and kanamycin) used as controls. The final concentration of antibiotics and protein hydrolysates/peptides was 100 µg/mL. After incubation for 0, 2, 4, and 6 h, the OD600 was documented using a microplate reader (Synergy H1 Hybrid Multi-Mode Reader, Biotek, Winusky, VT, USA).
(§3) A completely randomized design was used: protein hydrolysates/peptides from six agricultural wastes, seven agro-industrial wastes, and two fishery wastes as treatments; and human pathogenic bacteria P. aeruginosa ATCC28753, Bacillus subtilis ATCC6633, and Burkholderia cepacia ATCC25416 grown in tryptic soy broth (TSB) (Difco BBL, Sparks, MD, USA) at 28 °C in 96-well plates as experimental units. Experiments were conducted in triplicate and all the results shown in this study are presented as mean ± standard deviation (SD).

[2] = test system: Bacillus subtilis ATCC6633; conditions: TSB, mean ± SD, triplicate; for Inhibitory percentage, Bacillus subtilis: 100 µg/mL
Procedure: as §1, §2, §3

[3] = test system: Pseudomonas aeruginosa ATCC28753; conditions: TSB, mean ± SD, triplicate; for Inhibitory percentage, P. aeruginosa: synthetic peptides
Procedure: as §1, §2, §3

[4] = lower than 3 kDa hydrolysates and antibiotics, 6 h after treatment, 96-well

Row | Compound | Inhibitory percentage, Burkholderia cepacia ([1]; synthetic peptides) | Inhibitory percentage, Bacillus subtilis ([2]; synthetic peptides) | Inhibitory percentage, P. aeruginosa ([3]; 100 µg/mL) | other results
1 | CC1(C)S[C@@H]2[C@H](NC(=O)[C@H](N)c3ccccc3)C(=O)N2[C@H]1C(=O)O [ampicillin, reference compound] | – | – | – | inhibition at 100 µg/mL ([1]; Burkholderia cepacia, ATCC25416, lower than 3 kDa hydrolysates and antibiotics, 6 h after treatment, 96-well, read-out: Inhibitory percentage, Burkholderia cepacia): 32.8 ± 4.18%; inhibition at 100 µg/mL ([2]; Bacillus subtilis, ATCC6633, lower than 3 kDa hydrolysates and antibiotics, 6 h after treatment, 96-well, read-out: Inhibitory percentage, Bacillus subtilis): 85.2 ± 10.6%; inhibition at 100 µg/mL ([3]; Pseudomonas aeruginosa, ATCC28753, lower than 3 kDa hydrolysates and antibiotics, 6 h after treatment, 96-well, read-out: Inhibitory percentage, Pseudomonas aeruginosa): 32 ± 1.59%
2 | NC[C@H]1O[C@H](O[C@H]2[C@H](O)[C@@H](O[C@H]3O[C@H](CO)[C@@H](O)[C@H](N)[C@H]3O)[C@H](N)C[C@@H]2N)[C@H](O)[C@@H](O)[C@@H]1O [kanamycin, reference compound] | – | – | – | Inhibitory percentage, Burkholderia cepacia [1, 4]: 87.02 ± 0.42%; Inhibitory percentage, Bacillus subtilis [2, 4]: 77.60 ± 0.85%; Inhibitory percentage, Pseudomonas aeruginosa ([3]; lower than 3 kDa hydrolysates and antibiotics, 100 µg/mL, 6 h after treatment, 96-well): 39.00 ± 2.81%
3 | GAFHVTGL [compound 1, synthetic peptide from bagasse (AW6) hydrolysate; Photosystem II CP47 reaction center protein fragment] | 9.09 ± 0.04 | 3.82 ± 0.09 | 21.74 ± 0.96 | –
4 | NLWSNEINQDMAEF [Peptide no.3, Asn-Leu-Trp-Ser-Asn-Glu-Ile-Asn-Gln-Asp-Met-Ala-Glu-Phe, synthetic peptide from bagasse (AW6) hydrolysate; LRR receptor-like serine/threonine-protein kinase GSO2 fragment] | 23.32 ± 0.68 | 11.33 ± 0.29 | 24.87 ± 0.81 | –
5 | VLSSWGDESTL [compound 2, synthetic peptide from bagasse (AW6) hydrolysate; RNA helicase fragment] | 14.92 ± 0.72 | 4.45 ± 0.03 | 23.61 ± 0.12 | –
6 | VSNCL [Peptide no.4, Val-Ser-Asn-Cys-Leu, synthetic peptide from bagasse (AW6) hydrolysate; 3-ketoacyl-CoA synthase fragment] | 20.56 ± 0.28 | 10.39 ± 0.33 | 24.70 ± 0.81 | –
7 | WDTDNLSPDAVAAIKAAHPNVAVMAGL [compound 5, synthetic peptide from bagasse (AW6) hydrolysate; Chitinase fragment] | 20.51 ± 0.48 | 5.97 ± 0.06 | 30.34 ± 0.95 | –
